Among the test systems are UACC-257; COLO 205; SNB-75; K562; HCC 2998; HCT-15; ACHN; MOLT-4; UO-31; NCI-H23; LOX IMVI; OVCAR-8; HL-60; SR; U-251; HOP-92; SF-268; SNB-19; A549; OVCAR-4.
What all share (test): inhibition of tumour cell growth, NCI panel, 48 h

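Where inhibition never reached the appropriate level, the endpoint shown equals the highest concentration tested. Otherwise, values were interpolated linearly from a five-concentration, 48-hour dose response in 96-well plates. GI50 is the concentration that inhibits growth by half.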 The source made the active and inactive calls. Rule as the data show it: active = GI50 up to about 1.1 µM and inactive = higher.

Regarding `COc1cc2c(cc1OC)C(C1(O)CCCCC1)NCC2` (stereo not drawn), the GI50 with UACC-257 is > 100 µM (inactive); in the assay with COLO 205 it was > 100 µM (inactive); in the assay with SNB-75 it was > 100 µM (inactive); in the assay on K562 it was > 100 µM (inactive); in the assay on HCC 2998 it was > 100 µM (inactive); with HCT-15, > 100 µM. Also, the GI50 in the assay on ACHN, in the assay with MOLT-4, with UO-31, in the assay on NCI-H23, in the assay on LOX IMVI and in the assay with OVCAR-8 was > 100 µM (inactive) in each case. In addition, the GI50 in the assay on HL-60, in the assay with SR, in the assay on U-251, in the assay with HOP-92 and in the assay on SF-268 was > 100 µM (inactive) each time.

For `CC(C)(C)OC(=O)NCC(=O)NC1c2ccsc2/C(=N/O)[C@H]1O` (stereo partly drawn), the GI50 with UACC-257 was > 100 µM (inactive); with COLO 205, > 100 µM (inactive); with SNB-19, > 100 µM (inactive); with K562, 5.28 µM (inactive); in the assay on HCC 2998, 93.3 µM (inactive); in the assay with HCT-15 it was > 100 µM. Also, the GI50 in the assay with MOLT-4, in the assay on UO-31, with A549, with OVCAR-4, in the assay on NCI-H23 and with LOX IMVI was > 100 µM (inactive) throughout. In addition, the GI50 was > 100 µM (inactive) in the assay with OVCAR-8; > 100 µM (inactive) in the assay with HL-60; > 100 µM (inactive) in the assay with SR; > 100 µM (inactive) in the assay with U-251; 7.36 µM (inactive) in the assay on HOP-92.

In the case of `CC(=C/c1ccccc1)/C=C1/NC(=S)N(/C=C2\C(=O)Oc3ccccc3C2=O)C1=O`, the GI50 in the assay with UACC-257 is 66.7 µM (inactive); in the assay with COLO 205, 36.7 µM (inactive); in the assay on SNB-19, 65.6 µM (inactive); in the assay on SNB-75, > 100 µM (inactive); in the assay on K562 it was 39.6 µM (inactive); in the assay on HCC 2998 it was 58.1 µM (inactive). Besides, the GI50 with HCT-15 was 45.7 µM; in the assay on ACHN, 46 µM (inactive); in the assay with MOLT-4, 38.1 µM (inactive); in the assay on A549, 42.2 µM (inactive); in the assay with OVCAR-4, 34.9 µM (inactive); with NCI-H23, 41.6 µM (inactive). Also, the GI50 in the assay with LOX IMVI is 53.5 µM (inactive); in the assay with OVCAR-8, 52.4 µM (inactive); with HL-60, 25.8 µM (inactive); in the assay on SR, 38.1 µM (inactive); in the assay with U-251, 41.3 µM (inactive); in the assay on HOP-92, 7.78 µM (inactive). For the same compound, the GI50 in the assay with SF-268 is 53.6 µM (inactive).

Take `O=C1c2ccccc2N1C(=O)c1ccccc1[N+](=O)[O-]`: the GI50 in the assay with UACC-257 was > 100 µM (inactive); in the assay on COLO 205, 61.1 µM (inactive); with SNB-19, > 100 µM (inactive); with SNB-75 it was 53.3 µM (inactive); in the assay with K562 it was > 100 µM (inactive); in the assay with HCC 2998 it was > 100 µM (inactive). Further, the GI50 in the assay with HCT-15 is 44.2 µM; in the assay with ACHN, 78.9 µM (inactive); in the assay on MOLT-4, > 100 µM (inactive); in the assay on UO-31, > 100 µM (inactive); in the assay with A549, 45.2 µM (inactive); in the assay with OVCAR-4, 30 µM (inactive). In addition, the GI50 in the assay with NCI-H23 is > 100 µM (inactive); in the assay with LOX IMVI it was 32.1 µM (inactive); in the assay on OVCAR-8 it was 25.1 µM (inactive); with HL-60 it was > 10 µM (inactive); with SR it was > 100 µM (inactive); in the assay with U-251 it was 90.6 µM (inactive). In addition, the GI50 with HOP-92 was > 100 µM (inactive); in the assay on SF-268, 39.9 µM (inactive).

`NC(=O)Oc1ccccc1` [CARBAMIC ACID PHENYL ESTER]: the GI50 in the assay on UACC-257, in the assay on COLO 205, in the assay with SNB-19, with SNB-75, with K562 and in the assay on HCC 2998 was > 100 µM (inactive) each time. The GI50 with HCT-15 was > 100 µM; in the assay on ACHN it was > 100 µM (inactive); in the assay on MOLT-4 it was > 100 µM (inactive); with UO-31 it was > 100 µM (inactive); in the assay on A549, > 100 µM (inactive); with OVCAR-4, > 100 µM (inactive). The GI50 in the assay with NCI-H23, with LOX IMVI, in the assay on OVCAR-8, with HL-60, in the assay with SR and in the assay with U-251 was > 100 µM (inactive) throughout. In addition, the GI50 in the assay with HOP-92 and with SF-268 was > 100 µM (inactive) each time.

For the origin of these results see ChEMBL document CHEMBL1201862, “PubChem BioAssay data set” (2004).
